# Literature values in patent EP0721734A1, “PESTICIDE COMPOSITION” (NIPPON SODA CO., LTD., priority 1993, dated 1995).
row,SMILES,water solubility
1,CCN(Cc1ccc(Cl)nc1)C(=C[N+](=O)[O-])NC [2-methylamino-2-[N-ethyl-(2-chloro-5-pyridyl)methylamino]-nitoroethylene],up to 600 g/l
2,CCSCc1ccccc1OC(=O)NC [Ethiophencalb],"1,900 ppm"
3,CCc1cccc(C)c1N(C(=O)CCl)C(C)COC (stereo not drawn) [Metolachlor],530 ppm
4,CCCC(Cn1cncn1)c1ccc(Cl)cc1Cl (stereo not drawn) [Penconasole],70 ppm
5,CCO[PH](=O)[O-].CCO[PH](=O)[O-].CCO[PH](=O)[O-].[Al+3] [Phosethyl-Alminium],120 g/L
6,"CC(=NC#N)N(C)Cc1ccc(Cl)nc1 [active substance-1, N^1-[(2-chloro-5-pyridyl)methyl]-N^2-cyano-N^1-methylacetamidine]","3,700 ppm"
